The values that follow come from article PMC5741663, “Antimicrobial peptide capsids of de novo design” (Nature Communications, 2017).

In brackets after ≈: the same amount, converted by molar mass. Read-outs that look alike come from different tables or passages of the source. Marks after values point to notes of the source that are not given here. Starred links: 1 amine or outer side, 2 acyl side, 3 side chain; linkers in the order of their positions; H or OH if unused. Positions of bridges follow the written chain, without caps; N, C: chain ends. Non-standard residues stand in square brackets, D forms with d. Residues, ends and D or L forms follow the SMILES beside them. Chains are numbered I, II in the order given. *: point of attachment. X1 = CC(=O)N[C@@H](CCCCN[*:3])C(=O)NCCC(=O)N[C@@H](CCCCN[*:2])C(=O)NCCC(=O)N[C@@H](CCCCN[*:1])C(N)=O; X2 = CC[C@H](C)CCCCC(=O)*; Orn = NCCC[C@H](N)C(=O)O; Dab = NCC[C@H](N)C(=O)O; βAla = NCCC(=O)O Where only a bound is given, the exact number is not on record here.

Common to all, as to type: cell-based
One data set relates to Human erythrocytes. Briefly: Haemolysis assay. Particulars: 10% (vol/vol) human erythrocytes in PBS pH 7.2, 1 h at room temperature, absorbance 550 nm; triplicates. The method, then: Haemolysis was determined by incubating a 10% (vol/vol) suspension of human erythrocytes with peptides. Erythrocytes were rinsed four times in 10 mM phosphate buffer saline (PBS), pH 7.2, by repeated centrifugation and re-suspension (3 min at 3000×g). Erythrocytes were incubated at room temperature for 1 h in either deionised water (fully haemolysed control), PBS, or with peptide in PBS. After centrifugation at 10,000×g for 5 min, the supernatant was separated from the pellet, and the absorbance was measured at 550 nm. Absorbance of the suspension treated with deionised water defined complete haemolysis.

In a further data set the test system is S. enterica (ATCC700720). As for the experimental part:
MICs were determined by broth microdilution on different bacteria according to the Clinical and Laboratory Standards Institute. […] The absorbance was measured after peptide addition at 600 nm using a Victor 2 plate reader (Perkin-Elmer).

In another data set the test system is E. faecalis (OG1X). The method, then: (§1) MICs were determined by broth microdilution on different bacteria according to the Clinical and Laboratory Standards Institute. Typically, 100 μL of 0.5–1 × 10^6 CFU mL^–1 of each bacterium in Mueller Hinton media broth (Oxoid) were incubated in 96-well microtitre plates with 100 μL of serial two-fold dilutions of the peptides (from 100 to 0 μM) at 37 °C on a 3D orbital shaker. The absorbance was measured after peptide addition at 600 nm using a Victor 2 plate reader (Perkin-Elmer). MICs were defined as the lowest peptide concentration after 24 h at 37 °C.

Another data set has as its system E. coli (K12). As for the experimental part:
as §1

The subject of a further data set is S. aureus (ATCC6538). As for the experimental part: as §1
The test system of data set [1] is P. aeruginosa (ATCC27853). As for the experimental part:
as §1

For a further data set, the system named is B. subtilis (ATCC6633). The method, then:
as §1

The subject of data set [2] is K. pneumoniae (NCTC 5055). As for the experimental part:
MICs were determined by broth microdilution on different bacteria according to the Clinical and Laboratory Standards Institute. […] The absorbance was measured after peptide addition at 600 nm using a Victor 2 plate reader (Perkin-Elmer). MICs were defined as the lowest peptide concentration after 24 h at 37 °C.

Where [3] appears, read: S. enterica (ATCC700720), Mueller Hinton broth, 0.5–1 × 10^6 CFU mL–1, 24 h at 37 °C, absorbance 600 nm, total peptide concentration, triplicates.

`CCCCCCCCCC(=O)N[C@@H](Cc1c[nH]c2ccccc12)C(=O)N[C@H](CC(N)=O)C(=O)N[C@@H](CC(=O)O)C(=O)N[C@@H]1C(=O)NCC(=O)N[C@@H](CCCN)C(=O)N[C@@H](CC(=O)O)C(=O)N[C@H](C)C(=O)N[C@@H](CC(=O)O)C(=O)NCC(=O)N[C@H](CO)C(=O)N[C@@H]([C@H](C)CC(=O)O)C(=O)N[C@@H](CC(=O)c2ccccc2N)C(=O)O[C@@H]1C` [Daptomycin]: the “LC50, median (50%) cell death compared to untreated cells” value in the data set on Human erythrocytes is >250^d µM. The Minimum inhibitory concentrations is >50 µM with S. enterica (ATCC700720) (setting [3]); >100 µM in the data set on E. faecalis (OG1X) (OG1X, 24 h); >100 µM with E. coli (K12) (K12, 24 h); <8 µM with S. aureus (ATCC6538) (ATCC6538, 24 h); >100 µM in data set [1] (ATCC27853, 24 h); <8 µM with B. subtilis (ATCC6633) (ATCC6633, 24 h).
As to `CC[C@H](C)CCCCC(=O)N[C@@H](CCN)C(=O)N[C@H](C(=O)N[C@@H](CCN)C(=O)N[C@H]1CCNC(=O)[C@H]([C@@H](C)O)NC(=O)[C@H](CCN)NC(=O)[C@H](CCN)NC(=O)[C@H](CC(C)C)NC(=O)[C@@H](Cc2ccccc2)NC(=O)[C@H](CCN)NC1=O)[C@@H](C)O` [Polymyxin B] (X2-[Dab]T[Dab][Dab][Dab][dF]L[Dab][Dab]T; lactam 4-C (inferred); N-terminus assumed), the Minimum inhibitory concentrations is <1 µM in data set [2] (K. pneumoniae (NCTC 5055), Mueller Hinton broth, 0.5–1 × 10^6 CFU mL–1, 24 h at 37 °C, absorbance 600 nm, total peptide concentration, triplicates); <1 µM with S. enterica (ATCC700720) (setting [3]); >100 µM in the data set on E. faecalis (OG1X) (E. faecalis (OG1X), Mueller Hinton broth, 0.5–1 × 10^6 CFU mL–1, 24 h at 37 °C, absorbance 600 nm, total peptide concentration, triplicates); <1 µM with E. coli (K12) (E. coli (K12), Mueller Hinton broth, 0.5–1 × 10^6 CFU mL–1, 24 h at 37 °C, absorbance 600 nm, total peptide concentration, triplicates); <50 µM in the data set on S. aureus (ATCC6538) (S. aureus (ATCC6538), Mueller Hinton broth, 0.5–1 × 10^6 CFU mL–1, 24 h at 37 °C, absorbance 600 nm, total peptide concentration, triplicates); <1 µM in data set [1] (P. aeruginosa (ATCC27853), Mueller Hinton broth, 0.5–1 × 10^6 CFU mL–1, 24 h at 37 °C, absorbance 600 nm, total peptide concentration, triplicates). The Minimum inhibitory concentrations in the data set with B. subtilis (ATCC6633) (B. subtilis (ATCC6633), Mueller Hinton broth, 0.5–1 × 10^6 CFU mL–1, 24 h at 37 °C, absorbance 600 nm, total peptide concentration, triplicates) worked out at 1.5 µM (≈ 1.81 µg/mL).
On to `CC(C)C[C@@H]1NC(=O)[C@H](CCCN)NC(=O)[C@H](C(C)C)NC(=O)[C@@H]2CCCN2C(=O)[C@@H](Cc2ccccc2)NC(=O)[C@H](CC(C)C)NC(=O)[C@H](CCCN)NC(=O)[C@H](C(C)C)NC(=O)[C@@H]2CCCN2C(=O)[C@@H](Cc2ccccc2)NC1=O` [Gramicidin S] (cyclo(V[Orn]L[dF]PV[Orn]L[dF]P)), for which the “LC50, median (50%) cell death compared to untreated cells” value in the data set on Human erythrocytes is >20 µM. Besides, the Minimum inhibitory concentrations with S. enterica (ATCC700720) (setting [3]) is recorded as <10 µM; with E. coli (K12) (K12, 24 h), <20 µM; in the data set with S. aureus (ATCC6538) (ATCC6538, 24 h), <20 µM; in data set [1] (ATCC27853, 24 h), >40 µM; with B. subtilis (ATCC6633) (ATCC6633, 24 h), >40 µM.
For “I: H-KIAKLKQKIQKLKAKIAKLKQ[βAla][βAla] / II: H-KIAKLKQKIQKLKAKIAKLKQ[βAla][βAla] / III: H-KIAKLKQKIQKLKAKIAKLKQ[βAla][βAla] (linker I:C-II:C-III:C via X1) [C 3 (+) strand]”, the Minimum inhibitory concentrations in data set [2] (NCTC 5055, 24 h) is >12 µM; in the data set on S. enterica (ATCC700720) (ATCC700720, 24 h) it was 3 µM; in the data set with E. faecalis (OG1X) (OG1X, 24 h), 50 µM; in the data set with E. coli (K12) (K12, 24 h), 1.5 µM; in the data set on S. aureus (ATCC6538) (ATCC6538, 24 h), 50 µM; in data set [1] (ATCC27853, 24 h), 3 µM. The Minimum inhibitory concentrations in the data set on B. subtilis (ATCC6633) (ATCC6633, 24 h) is 1.5 µM.
